Experimental data: US20260308158A1, “TARGETING RNAS ASSOCIATED WITH TAUOPATHIES WITH SMALL MOLECULES” (University of Florida Research Foundation, Incorporated, priority 2023, published 2026)

Legend:
[1] = Plasma protein binding by equilibrium dialysis; assay type: in vitro ADME; settings: 37° C., 6 h (2 at 5 μM), read-out: free fraction in plasma
Method: Plasma and brain binding. Plasma protein binding was determined by equilibrium dialysis using a Thermo Scientific™ RED Device per the manufacturer's protocol. Each sample was prepared by addition of 2 into 100 μL plasma with final concentration of 5 μM (0.1% (v/v) DMSO). 1×PBS was used as dialysis buffer and was added into the buffer chamber. The plate was incubated with shaking at 37° C. for 6 h. The concentration of 2 in the plasma and buffer compartments was determined as described in Quantitation of 2 in Mouse Plasma and Brain. The free fraction was calculated as [buffer]/[plasma].

[2] = tested on: DDPAC I17T MAPT mini-gene (exon 10 splicing); experiment: 4R/3R MAPT mRNA by RT-qPCR, HeLa cells transfected with DDPAC I17T mini-gene; assay type: cell-based; settings: ASO 0.5 μM
Method: (§1) RNA Isolation and Real-Time Quantitative PCR (RT-qPCR). HeLa cells were treated as described in the Luciferase Reporter assay to Study Exon 10 Alternative Splicing. LAN5 cells were seeded in 12-well plates at 0.2×10^6 cells per well, treated with compound or ASO, and incubated for 48 h. Compound stocks prepared in DMSO and ASO stocks prepared in water were diluted in growth medium and added to cells. Total RNA was extracted from cells and analyzed via RT-qPCR to determine levels of 3R and 4R tau mRNA. In brief, the cells were washed with 1×DPBS and then lysed in the well using 300 μL of Lysis Buffer provided in a Quick-RNA MiniPrep kit (Zymo Research), which was used to extract total RNA per the manufacturer's protocol including the on-column DNase I digestion. The concentration of total RNA was measured by NanoDrop 2000 (Thermo Fisher Scientific). Only samples with OD260/OD280>1.8 were carried forward for analysis. Reverse transcription (RT) was carried out on 200 ng of total RNA using a qScript cDNA synthesis kit (QuantaBio) in a total volume of 10 μL according to the manufacturer's protocol. An Applied Biosystems QS5 384-well PCR system was used to complete qPCR reactions with Power SYBR Green Master Mix (Life Technologies), 600 nM each primer (Table S3), 20 ng of cDNA (1 μL of the RT reaction), in a total volume of 33 μL. Technical triplicates (10 μL each) were aliquoted into 384-well qPCR plates (Applied biosystems, 4483285). Subsequent qPCR analysis was performed using an Applied Biosystems QS5 384-well PCR system (software v.1.3.0). 4R/3R ratio were analyzed using ΔΔCt method using Equation 2: […]
(§2) where ΔCt 4R or ΔCt 3R is the difference between the Ct values for the 4R or 3R MAPT mRNA and a housekeeping gene (18S rRNA) in total RNA from cells.

[3] = tested on: MAPT exon 10 splicing in LAN5 cells; experiment: 4R/3R endogenous MAPT mRNA by RT-qPCR in LAN5 neuroblastoma cells; assay type: cell-based; settings: for PSI10 in all cell lines: ASO, all cell lines of FIGS. 12A-12C (LAN5, HeLa mini-genes, htau primary neurons)
Method: as §1, §2

[4] = tested on: WT I17T MAPT mini-gene (exon 10 splicing); experiment: 4R/3R MAPT mRNA by RT-qPCR, HeLa cells transfected with WT I17T mini-gene; assay type: cell-based; settings: ASO 0.5 μM
Method: as §1, §2

[5] = tested on: MAPT exon 10 splicing in primary neurons from htau mice; experiment: 4R/3R MAPT mRNA by RT-qPCR in primary neurons from htau mice; assay type: cell-based, human MAPT in htau transgenic mouse neurons; settings: 48 h
Method: as §1
Isolation and Treatment of Primary Neurons from Humanized tau (hTau) Transgenic Mice. All animal studies were completed as approved by the Scripps Florida Institutional Animal Care and Use Committee. […]

LAN5 transcriptome = experiment: RNA-seq transcriptome-wide selectivity in LAN5 cells; assay type: cell-based, human
Method: RNA-Seq. LAN5 cells in 12-well plate (~60% confluency) were treated with 2 (1.5 μM), 0.1% (v/v) DMSO (vehicle), 4R-to-3R tau ASO (0.5 μM), or scrambled ASO (0.5 μM) for 48 h. Total RNA was extracted using an RNeasy Mini Kit (Qiagen) per the manufacturer's protocol. Next, rRNA was depleted using NEBNext rRNA depletion modules (E6310L, New England Biosciences) and prepared with NEBNext Ultra II Dir RNA Lib Prep Kit (E7760S, New England Biosciences) according to the manufacturer's protocol. The prepared libraries were processed with NextSeq 500/550 High Output Kit v2.5 (Illumina, 20024907) per the manufacturer's protocol and then sequenced on a NextSeq 500. After sequencing, the BCL files were converted to FASTQ files using basemount/0.12.8.1516 and bcl2fastq/2.17.1.14.^33 The sequencing depth was over 82 million for each sample.
FastQC^34 and RSeQC^35 were used to determine the quality of reads and any overrepresentation of sequences. HISAT2^36 was used to map the reads to the reference human genome (hg19), and the output SAM files were converted to BAM files and sorted by index. Kallisto^37 and NCBI reference sequences (RefSeq)^38 were used for gene quantification to calculate transcripts per million (TPM). Differentially expressed genes were detected with Sleuth^39 and determined by a multiple test corrected p-value<0.05. Splicing event PSI values were quantitated using MISO.^40

Row | fraction unbound at 6 h [1] | Compound | effect on 4R/3R ratio [2] | PSI10 in all cell lines [3] | effect on 4R/3R ratio [4] | reduction of 4R/3R MAPT ratio ([3]; ASO 0.5 μM, LAN5, 48 h) | 4R/3R ratio and PSI10 [5] | expression of MAPT gene (LAN5 transcriptome; 2 at 1.5 μM or ASO 0.5 μM) | alternative splicing of MAPT exons (exon 10) (LAN5 transcriptome; 2 at 1.5 μM or tau ASO 0.5 μM) | genes unchanged, percent (LAN5 transcriptome; tau ASO 0.5 μM, 48 h)
1 | 0.377 ± 0.042 | NC(=O)N1c2ccccc2C=Cc2ccccc21 [Carbamazepine, reference compound] |  |  |  |  |  |  |  | 
2 |  | scrambled ASO: scrambled ASO 5′-CTGTCTGACGTTCTTTGT-3′ (SEQ ID NO: 2), negative control (chemistry not given here) [reference compound] | not scrambled ASO altered the 4R/3R ratio | not scrambled ASO was also downregulated | not scrambled ASO altered the 4R/3R ratio |  |  |  |  | 
3 |  | tau ASO: Vivo-Morpholino antisense oligonucleotide targeting the MAPT exon-10-intron junction hairpin, 5′-TGAAGGTACTCACACTGCCGC-3′ (SEQ ID NO: 1) (all phosphorodiamidate morpholino (PMO); Vivo-Morpholino: morpholino with attached delivery moiety, further chemistry not fully specified) [reference compound] | altered the 4R/3R ratio | also downregulated in all cell lines | altered the 4R/3R ratio | ~ 82% | dose dependent reduction | Neither 2 nor the ASO altered the expression of MAPT gene | only one significantly reduced | 99.97%
